Data reported in PubChem BioAssay AID2060489 (Molecular Pharmacology Branch, DTP, NCI, 2025).

Test system: 922993-354-T-J3-PDC complex spheroids, viability
Test: Anticancer human tumor 922993-354-T-J3-PDC patient-derived endometrial carcinoma cell line growth inhibition [GQUAD]
Details: for IC50: curve of first compound; for viability, T/C: stronger effect = lower value
From the text: DNA G-quadruplex Stabilizer Agents in Combinations in Complex Spheroids
A high-throughput screen of multi-cell type tumor spheroids was designed to identify active combinations of DNA G-quadruplex stabilizer agents and targeted small molecules. Complex spheroids include a stromal component modeled by human endothelial cells (HUVEC) and fibroblasts modeled by human mesenchymal stem cells (MSCs). The concentration ranges selected for each drug and investigational agent were based upon clinically achievable concentrations if the clinical Cmax of the agent was known.
Compounds. The drugs and investigational agents: pidnarulex (CX-5461; NSC782164), APTO-253 (NSC789042), BRACO-19 (NSC847499), peposertib (NSC802822), ceralasertib (NSC780249), elimusertib (NSC800525), camonsertib (NSC841442), AZD-1390 (NSC803789), olaparib (NSC753686), talazoparib (NSC767125), ART-558 (NSC835418), sotorasib (NSC818433), MRTX-1133 (NSC836407), SN-38 (NSC673596), topotecan (NSC609699), etoposide (NSC141540), doxorubicin (NSC123127), gemcitabine (NSC613327), 5-fluorouracil (NSC19893), paclitaxel (NSC125973), vemurafenib (NSC761431), panobinostat (NSC761190), R-306465 (JNJ-16241199; NSC773264), adavosertib (NSC754352), TP-3654 (NSC805149), carboplatin (NSC241240), KSQ-4279 (NSC840948), and staurosporine (NSC755774) were obtained from the National Cancer Institute (NCI) Developmental Therapeutics Program Chemical Repository (34). The FDA-approved anticancer drug set is available from the NCI Developmental Therapeutics Program. […] The stock solutions were prepared in dimethyl sulfoxide (DMSO, Sigma-Aldrich, St. Louis, MO, cat. D2650) at 800-fold the tested concentration and stored at -70 degrees C prior to their use. All drugs and investigational agents were tested over a range starting from a high concentration at or near the clinical Cmax and decreasing in half-log increments. If the clinical Cmax for an agent had not been determined, the highest concentration tested was 10 microM.
2.3 Cell Culture. All cells were maintained in an incubator at 37 degrees C and 5% CO2 with 95% humidity. The PDC lines were cultured according to standard operating procedures established by the NCI PDMR. All PDCs were thawed and cultured in Matrigel-coated flasks prepared with a working solution of 1X Ham's F-12 nutrient mix, without supplementation (Invitrogen, cat. 11765054), 100 U/mL penicillin-streptomycin (Invitrogen, cat. 15140122), and 2.5% Matrigel (Corning Inc., cat. 354248) for the first three passages. The 857933-349-R-J2-PDC line was cultured in 6C/Colon 1B media, which includes advanced DMEM/F-12 (Thermo Fisher Scientific, cat. 12634028), 10 mM HEPES (Thermo Fisher Scientific, cat. 15630080), 1X GlutaMAX supplement (Thermo Fisher Scientific, cat. 35050061), 0.1 mg/mL primocin (InvivoGen, cat. ant-pm-2), 10% defined fetal bovine serum, heat inactivated (HyClone Laboratories Inc., cat. SH30070.03HI), 50% L-WRN conditioned media (ATCC, cat. CRL-3276), 1.25 mM N-Acetyl-L-cysteine (Sigma-Aldrich, cat. A9165), 10 mM nicotinamide (Sigma-Aldrich, cat. N0636), 1X B-27 supplement (Thermo Fisher Scientific, cat. 17504044), 1X N-2 supplement (Thermo Fisher Scientific, cat. 17502048), 10 microM Y-27632 dihydrochloride (Tocris Bioscience, cat. 1254), and 50 ng/mL human EGF recombinant protein (Thermo Fisher Scientific, cat. PHG0311). The 485176-168-R4-J1-PDC line was cultured in Panc media, which includes all 6C/Colon 1B media components plus 100 ng/mL human FGF-10 (Thermo Fisher Scientific, cat. 100-26), 500 nM SB-431542 (Selleckchem, cat. S1067), and gastrin (Tocris, cat. 3006).
[…]

[1] = second compound 0.0316 µM, first compound 0.0316 µM
[2] = second compound 0.0316 µM, first compound 0.316 µM
[3] = second compound 0.1 µM, first compound 0.0316 µM
[4] = second compound 0.1 µM, first compound 0.316 µM
[5] = second compound 0.316 µM, first compound 0.0316 µM
[6] = second compound 0.316 µM, first compound 0.316 µM
[7] = second compound 1 µM, first compound 0.0316 µM
[8] = second compound 1 µM, first compound 0.316 µM
[9] = second compound 3.16 µM, first compound 0.0316 µM
[10] = second compound 3.16 µM, first compound 0.316 µM
[11] = second compound 10 µM, first compound 0.0316 µM
[12] = second compound 10 µM, first compound 0.316 µM
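Further: spheroids exposed to compounds for seven days.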
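Wherever viability, T/C is given: 100% = DMSO vehicle control viability.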

In the case of Cc1[nH]c2ccccc2c1CCNCc1ccc(/C=C/C(=O)NO)cc1 + CN(C)c1ccc(Nc2c3ccc(NC(=O)CCN4CCCC4)cc3nc3cc(NC(=O)CCN4CCCC4)ccc23)cc1, the IC50 (second compound 0.0316 µM) is reported as > 0.316 µM, the IC50 (second compound 0.1 µM) is reported as > 0.316 µM and the IC50 (second compound 0.316 µM) is reported as > 0.316 µM. For the same compound, the IC50 (second compound 1 µM) was > 0.316 µM, the IC50 (second compound 3.16 µM) was > 0.316 µM and the IC50 (second compound 10 µM) was > 0.316 µM. The viability, T/C (second compound 0.0316 µM, first compound 0.000999 µM) was 104%, the viability, T/C (second compound 0.0316 µM, first compound 0.00316 µM) was 78.9% and the viability, T/C (second compound 0.0316 µM, first compound 0.00999 µM) was 91.6%. The viability, T/C [1] was 67.8%, the viability, T/C (second compound 0.0316 µM, first compound 0.0999 µM) was 56.4% and the viability, T/C [2] was 62.5%. For the same compound, the viability, T/C (second compound 0.1 µM, first compound 0.000999 µM) was 73.2%, the viability, T/C (second compound 0.1 µM, first compound 0.00316 µM) was 85.3% and the viability, T/C (second compound 0.1 µM, first compound 0.00999 µM) was 94.2%. For the same compound, the viability, T/C [3] was 86.2%, the viability, T/C (second compound 0.1 µM, first compound 0.0999 µM) was 78.1% and the viability, T/C [4] was 53.1%. The viability, T/C (second compound 0.316 µM, first compound 0.000999 µM) was 94.5%, the viability, T/C (second compound 0.316 µM, first compound 0.00316 µM) was 94.4% and the viability, T/C (second compound 0.316 µM, first compound 0.00999 µM) was 89.1%. For the same compound, the viability, T/C [5] was 93%, the viability, T/C (second compound 0.316 µM, first compound 0.0999 µM) was 73.1% and the viability, T/C [6] was 61.7%. The viability, T/C (second compound 1 µM, first compound 0.000999 µM) was 70.3%, the viability, T/C (second compound 1 µM, first compound 0.00316 µM) was 95.9% and the viability, T/C (second compound 1 µM, first compound 0.00999 µM) was 101%. The viability, T/C [7] was 76.1%, the viability, T/C (second compound 1 µM, first compound 0.0999 µM) was 97% and the viability, T/C [8] was 59.5%. It also gave a viability, T/C (second compound 3.16 µM, first compound 0.000999 µM) of 101%, a viability, T/C (second compound 3.16 µM, first compound 0.00316 µM) of 81.4% and a viability, T/C (second compound 3.16 µM, first compound 0.00999 µM) of 94.8%. The viability, T/C [9] was 82.3%, the viability, T/C (second compound 3.16 µM, first compound 0.0999 µM) was 78.7% and the viability, T/C [10] was 57.4%. It also gave a viability, T/C (second compound 10 µM, first compound 0.000999 µM) of 121%, a viability, T/C (second compound 10 µM, first compound 0.00316 µM) of 118% and a viability, T/C (second compound 10 µM, first compound 0.00999 µM) of 106%. It also gave a viability, T/C [11] of 112%, a viability, T/C (second compound 10 µM, first compound 0.0999 µM) of 110% and a viability, T/C [12] of 61.3%.
Work on O=C(NO)c1cnc(N2CCN(S(=O)(=O)c3ccc4ccccc4c3)CC2)nc1 + CN(C)c1ccc(Nc2c3ccc(NC(=O)CCN4CCCC4)cc3nc3cc(NC(=O)CCN4CCCC4)ccc23)cc1 yielded an IC50 (second compound 0.0316 µM) of 0.39 µM, an IC50 (second compound 0.1 µM) of 0.475 µM and an IC50 (second compound 0.316 µM) of 0.442 µM. It also gave an IC50 (second compound 1 µM) of 0.448 µM, an IC50 (second compound 3.16 µM) of 0.682 µM and an IC50 (second compound 10 µM) of 0.689 µM. The viability, T/C [1] was 107%, the viability, T/C (second compound 0.0316 µM, first compound 0.1 µM) was 79.2% and the viability, T/C [2] was 50%. The viability, T/C (second compound 0.0316 µM, first compound 1 µM) was 41.5%, the viability, T/C (second compound 0.0316 µM, first compound 3.16 µM) was 4.18% and the viability, T/C (second compound 0.0316 µM, first compound 10 µM) was 0.41%. It also gave a viability, T/C [3] of 79.9%, a viability, T/C (second compound 0.1 µM, first compound 0.1 µM) of 96.1% and a viability, T/C [4] of 56.6%. For the same compound, the viability, T/C (second compound 0.1 µM, first compound 1 µM) was 29.6%, the viability, T/C (second compound 0.1 µM, first compound 3.16 µM) was 4.22% and the viability, T/C (second compound 0.1 µM, first compound 10 µM) was 0.4%. It also gave a viability, T/C [5] of 96.5%, a viability, T/C (second compound 0.316 µM, first compound 0.1 µM) of 75% and a viability, T/C [6] of 60.8%. It also gave a viability, T/C (second compound 0.316 µM, first compound 1 µM) of 33.4%, a viability, T/C (second compound 0.316 µM, first compound 3.16 µM) of 4.98% and a viability, T/C (second compound 0.316 µM, first compound 10 µM) of 0.4%. The viability, T/C [7] was 76.7%, the viability, T/C (second compound 1 µM, first compound 0.1 µM) was 76.6% and the viability, T/C [8] was 54.5%. It also gave a viability, T/C (second compound 1 µM, first compound 1 µM) of 34.5%, a viability, T/C (second compound 1 µM, first compound 3.16 µM) of 3.3% and a viability, T/C (second compound 1 µM, first compound 10 µM) of 0.44%. It also gave a viability, T/C [9] of 88.3%, a viability, T/C (second compound 3.16 µM, first compound 0.1 µM) of 95.7% and a viability, T/C [10] of 80.9%. It also gave a viability, T/C (second compound 3.16 µM, first compound 1 µM) of 34.3%, a viability, T/C (second compound 3.16 µM, first compound 3.16 µM) of 4.89% and a viability, T/C (second compound 3.16 µM, first compound 10 µM) of 0.4%. For the same compound, the viability, T/C [11] was 101%, the viability, T/C (second compound 10 µM, first compound 0.1 µM) was 85.6% and the viability, T/C [12] was 95.3%. For the same compound, the viability, T/C (second compound 10 µM, first compound 1 µM) was 29%, the viability, T/C (second compound 10 µM, first compound 3.16 µM) was 5.63% and the viability, T/C (second compound 10 µM, first compound 10 µM) was 0.55%.
